Patent US9814758B2, “Inhibitors of apoptosis and uses thereof” (CENTRE NATIONAL DE LA RECHERCHE SCIENTIFIQUE-CNRS, priority 2010, dated 2017)
Non-standard residues stand in square brackets, D forms with d. No end group written: not given here. Ahx = NCCCCCC(=O)O; βAla = NCCC(=O)O

Key:
[1] = tested on: primary cardiomyocytes; assay: STS-induced DNA fragmentation (Cell Death detection ELISA PLUS) in primary cardiomyocytes; type: cell-based, mouse; details: for anti-apoptotic effect compared with Tat-DAXXp: primary cardiomyocytes, against STS; for decrease in apoptosis: cardiomyocytes, STS + 1 μM peptide, FIG. 9
Protocol: (§1) FIG. 5: In vitro evaluation of the anti-apoptotic activity of CPPs and CPP-conjugates. Workflow and quantitation of DNA fragmentation in (A) C2C12 cells, (B) primary cardiomyocytes, (C) H9c2 cells and (D) NG108-15 cells. Data were normalized to 100% STS. Data shown are the means±SEM, with n≧5. Cells were seeded in 24-well plates and grown overnight. The next day, the cells were incubated with STS alone or with STS+1 μM peptide (in OPTI-MEM) (OPTI-MEM® is a modification of Eagle's Minimum Essential Media, buffered with HEPES and sodium bicarbonate, and supplemented with hypoxanthine, thymidine, sodium pyruvate, L-glutamine, trace elements, and growth factors) (STS concentration and incubation time for each cells are given in the figure). Thereafter, solutions were removed, replaced by complete medium and further incubated for 40 h. Following the regeneration phase, the cells were lyzed and DNA fragmentation was detected according to manufacturer's instructions (Cell Death detection ELISA^PLUS kit—Roche Diagnostics).
FIG. 6: Anti-apoptotic activity of variants of the Tat-DAXXp sequence on primary cardiomyocytes. As described in the caption of FIG. 5, the different analogues of the DAXXp sequence (see Table 2) were assessed for anti-apoptotic properties against STS (Cell Death detection ELISA^PLUS kit—Roche Diagnostics) (A-B). None of the analogues were able to protect the primary cardiomyocytes—a fact which confirms that the 16mer DAXXp has the optimal length and sequence for highest cardioprotective effect.
FIG. 7: Comparison of the murine/rat DAXXp with the human DAXXp sequence in terms of anti-apoptotic activity on C2C12 cells, primary cardiomyocytes, and H9c2. The murine DAXXp sequence conjugated to Tat (Tat-mDAXXp—SEQ ID NO: 61) which is identical to the rat DAXXp sequence (see FIG. 1B), was compared to the human construct (Tat-DAXXp) in terms of anti-apoptotic properties against STS (Cell Death detection ELISA^PLUS kit—Roche Diagnostics). The C2C12 cells and the primary cardiomyocytes used were from mice and the H9c2 cells from rat.
FIG. 9: Comparison of FADDp constructs with Tat-DAXXp in terms of anti-apoptotic activity in primary cardiomyocytes and in H9c2 cells. Quantification of DNA normalized to 100% STS. Data shown are the means±SEM, with n≧5. Cells were seeded in 24-well plates and grown overnight. The next day, the cells were incubated with STS alone or with STS+1 μM peptide (in OPTI-MEM®) (OPTI-MEM® is a modification of Eagle's Minimum Essential Media, buffered with HEPES and sodium bicarbonate, and supplemented with hypoxanthine, thymidine, sodium pyruvate, L-glutamine, trace elements, and growth factors) (STS concentration is given in the figure and incubation time is given in FIG. 5). Thereafter, solutions were removed, replaced by complete medium and further incubated for 40 hours. Following the regeneration phase, the cells were lyzed and DNA fragmentation was detected according to manufacturer's instructions (Cell Death detection ELISA^PLUS kit—Roche Diagnostics).
FIG. 10: Comparison of Tat-DAXXp and Tat-FADDp15 alone and in combination in primary cardiomyocytes (A) and in H9c2 cells (B).
(§2) Thereafter, the capacity of these peptides to inhibit apoptosis induced by staurosporine was evaluated. Apoptosis was determined using the Cell Death detection ELISA^PLUS kit (Roche) measuring the DNA fragmentation.
In most publications, anti-apoptotic peptides currently available in the art are administrated 3-4 hours prior to apoptosis induction, which is poorly relevant to a clinical application. For that reason, the protocol used in the present study included administration of the peptides together with the staurosporine. […] This was not observed with CPP alone or with the Tat-scrDAXXp or Tat-ncDAXXp negative controls. […] To better compare the results, the DNA fragmentation (described by the enrichment factor) is related to the staurosporine-treated cells (=100%).

[2] = tested on: C2C12 cells; assay: STS-induced DNA fragmentation (Cell Death detection ELISA PLUS) in C2C12 cells; type: cell-based, mouse; details: C2C12; against STS
Protocol: as §1, with “Thereafter, solutions were removed, replaced by complete medium and further incubated for 40 h.” left out, “Diagnostics). […]” for “Diagnostics).”
as §2
(§3) The anti-apoptotic effects of the peptides were also analyzed in murine NG118-15 (model for neuronal cells) (FIG. 5D), in murine C2C12 (model for muscle cells) (FIG. 5A) and in rat H9c2 (model for cardiac cells) (FIG. 5C). […]

[3] = tested on: H9c2 cells; assay: STS-induced DNA fragmentation (Cell Death detection ELISA PLUS) in H9c2 cells; type: cell-based, rat; details: H9c2; against STS
Protocol: as §1, with “Diagnostics). […]” for “Diagnostics).”
as §2
The anti-apoptotic effects of the peptides were also analyzed in murine NG118-15 (model for neuronal cells) (FIG. 5D), in murine C2C12 (model for muscle cells) (FIG. 5A) and in rat H9c2 (model for cardiac cells) (FIG. 5C). The highest reduction in DNA fragmentation were observed using Bpep-DAXXp in NG118-15 (66% reduction) using Tat-DAXXp in C2C12 (24% reduction) and Pip2b-DAXXp in H9c2 (31% reduction).

[4] = tested on: NG108-15 cells; assay: STS-induced DNA fragmentation (Cell Death detection ELISA PLUS) in NG108-15 cells; type: cell-based; details: murine NG118-15 (model for neuronal cells); FIG. 5D
Protocol: as §1, with “Thereafter, solutions were removed, replaced by complete medium and further incubated for 40 h.” left out
as §2, §3

[5] = target: T1, intracellular region of the Fas receptor (Homo sapiens, UniProt P25445); assay: Binding affinities (Kd) by surface plasmon resonance (Biacore); details: mean of three independent experiments, read-out: Kd ± SD
T1 sequence (P25445 191-335 limits assumed): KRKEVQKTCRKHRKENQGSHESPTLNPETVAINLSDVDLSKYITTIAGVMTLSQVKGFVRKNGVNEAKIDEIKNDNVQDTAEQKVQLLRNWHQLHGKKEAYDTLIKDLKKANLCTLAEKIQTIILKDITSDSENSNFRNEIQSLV
Excerpt: Additionally, the potential interaction of the fragments with the intracellular region of the Fas receptor was cross-validated by measuring the binding affinities (Kd) using the surface plasmon resonance (SPR) technique (Biacore Life Science, Sweden).

Kd [5] [mM] | Substance | anti-apoptotic effect compared with Tat-DAXXp [1] | anti-apoptotic effect compared with Tat-DAXXp [2] | anti-apoptotic effect compared with Tat-DAXXp [3] | reduction in DNA fragmentation [4] [%] | decrease in apoptosis [1] [%]
– | GRKKRRQRRRPPQ-KRFRKEKKQLGSGLLG-NH2 (GRKKRRQRRRPPQKRFRKEKKQLGSGLLG-NH2) [Tat-mDAXXp] | increase in anti-apoptotic effect | increase in anti-apoptotic effect | increase in anti-apoptotic effect | – | –
– | RXRRBRRXRRBRXB-KKSRKEKKQTGSGPLG-NH2 (R[Ahx]RR[βAla]RR[Ahx]RR[βAla]R[Ahx][βAla]KKSRKEKKQTGSGPLG-NH2; N-terminus assumed; SMILES CC(C)C[C@H](NC(=O)[C@@H]1CCCN1C(=O)CNC(=O)[C@H](CO)NC(=O)CNC(=O)[C@@H](NC(=O)[C@H](CCC(N)=O)NC(=O)[C@H](CCCCN)NC(=O)[C@H](CCCCN)NC(=O)[C@H](CCC(=O)O)NC(=O)[C@H](CCCCN)NC(=O)[C@H](CCCNC(=N)N)NC(=O)[C@H](CO)NC(=O)[C@H](CCCCN)NC(=O)[C@H](CCCCN)NC(=O)CCNC(=O)CCCCCNC(=O)[C@H](CCCNC(=N)N)NC(=O)CCNC(=O)[C@H](CCCNC(=N)N)NC(=O)[C@H](CCCNC(=N)N)NC(=O)CCCCCNC(=O)[C@H](CCCNC(=N)N)NC(=O)[C@H](CCCNC(=N)N)NC(=O)CCNC(=O)[C@H](CCCNC(=N)N)NC(=O)[C@H](CCCNC(=N)N)NC(=O)CCCCCNC(=O)[C@@H](N)CCCNC(=N)N)[C@@H](C)O)C(=O)NCC(N)=O) [Bpep-DAXXp] | – | – | – | 66 | –
– | GRKKRRQRRRPPQ-VGKRKLERVQSGLDL-NH2 (GRKKRRQRRRPPQVGKRKLERVQSGLDL-NH2) [Tat-FADDp15] | increased anti-apoptotic effect | – | equal | – | 57
≥ 6 | KKGRKQSGESLGTPKK-NH2 [scrDAXXp, KKGRKQSGESLGTPKK -NH2] | – | – | – | – | –
– | GRKKRRQRRRPPQ-KRKLERVQS-NH2 (GRKKRRQRRRPPQKRKLERVQS-NH2) [Tat-FADDp] | less effective than Tat-DAXXp | – | less effective than Tat-DAXXp | – | 35
